This note sets out measurements from patent US20040121965A1, “Method of treating resistant tumors” (Wyeth Holdings Corporation, priority 2002, published 2004).

In one data set the test system is KB-3-1. Description: Cell survival assay (SRB), KB-3-1. The class given is cell-based, human. In a few lines:
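Step 1: add serial compound dilutions to cells in duplicate. Step 2: incubate 3 days. Step 3: fix in 10% TCA for 1 hr at 4 °C, stain with 0.04% SRB for 10 min, wash in 1% acetic acid, solubilise in 10 mM Trizma Base, measure absorbance and derive the 50%-growth-inhibition concentration.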

Another data set has as its system KB-HTI-4.0. Nature of the data set: Cell survival assay, KB-3-1 line made resistant to Example 129 (KB-HTI-4.0). The class given is cell-based, human. The note with it: for IC50: KB-3-1 line made resistant to Example 129, Table 8, read-out: KB-HTI-4.0 IC50; for (RR) relative resistance vs. parental cells: KB-HTI-4.0 vs KB-3-1. An excerpt: (§1) Cells lines with previously known mechanisms of resistance. […] Res. 8: 207-218,1996); KB-3-1 (parental derived from an epidermoid carcinoma), KB-8.5, KB-V1 (Akiyama S-I, Fojo A, Hanover J A, Pastan I, Gottesman M M. Isolation and genetic characterization of human KB cell lines resistant to multiple drugs. Somatic Cell Mol. Gen., 11: 117-126,1985; Shen D-W, Cardarelli C, Hwang J, Cornwell M, Richert N, Ishii S, Pastan I, Gottesman MM. […] J. Biol. Chem., 261: 7762-7770, 1986); and HL-60 (parental derived from human leukemia) and HL60/AR (McGrath T., Center M. S. Adriamycin resistance in HL60 cells in the absence of detectable P-glycoprotein. Biochem. Res. Commun., 145:1171-1176,1987); A549 and A549.EpoB40 (He L., Yang C.-P.H., Horwitz S. B. Mutations in p-tubulin map to domains involved in regulation of microtubule stability in epothilone-resistant cell lines. Molecular Cancer Therapeutics. 1: 3-10, 2001). HCT-15 human colon carcinoma and DLD-1 human colon carcinoma are obtained from American Tissue Culture Collection. The MX-1W carcinoma is a Wyeth variant orginally obtained as MX-1 breast carcinoma from the National Cancer Institute. Cell lines selected for resistance to Representative Example 129. KB-3-1 cells are selected for resistance to Example 129 by chronically exposing cells to increasing concentrations of Example 129.
(§2) 2.2. Cell Survival Assay: Standard Pharmacological Test Procedure. The concentration of candidate inhibitor required to inhibit 50% of cell growth (IC50) is done according to previously reported methods. […] Compounds are serially diluted into media as 2× stocks and 100 μl added to cells in duplicate. Compounds are incubated with cells for 3 days. At the end of the incubation period the sulforhodamine B (SRB) assay, which measures protein content as an assessment of cell survival, is performed as described previously (Skehan P, Storeng R, Scudiero D, Monks A, McMahon J, Vistica D, Warren J T, Bokesch H, Kenney S, Boyd MR. New calorimetric cytotoxicity assay for anticancer-drug screening. J Natl Cancer Inst 1990 Jul 4;82(13):1107-12) with some modification as follows. For KB-3-1 cells with 20% FCS, media is gently decanted and replaced with 200 μl of serum-free media mixed with cold 50% TCA for a final concentration of 10% TCA. The plates are incubated for 1 hr at 4° C., followed by washing 5 times in cold distilled water, then air dried overnight. The fixed cells are stained for 10 min with 80 μl of 0.04% SRB solution prepared in 1% glacial acetic acid. Stain is discarded and plates washed 5 times in 1% glacial acetic acid, then air-dried until completely dry. Stained cell product is dissolved in 150 μl of 10 mM Trizma Base and placed on a shaker for 20 minutes until fully dissolved. Absorbance is read on a Victor V multi-label plate reader (Perkin Elmer, Gaithersburg, Md.).
Cells are selected for resistance to Example 129 to understand the frequency and mechanistic basis of resistance.

A further data set deals with A549.EpoB40. The class given is cell-based. The following applies: vs A549; below 1 = sensitive.
Description: as §1
as §2, with “Stained cell product is dissolved in 150 μl of 10 mM Trizma Base and placed on a shaker for 20 minutes until fully dissolved.” left out

The test system of data set [1] is KB-8-5 (MDR1+). Nature of the data set: Cell survival assay (SRB), KB-8-5 (MDR1+). The following applies: for IC50: Homo sapiens, MDR1, read-out: KB-8-5 (MDR1+) IC50, nM (N); for RR, relative resistance: IC50 KB-8-5 / IC50 KB-3-1, Table 3.
Data set [2] has as its system KB-V1 (MDR1++).
Data set [3] deals with KB-V1 (MDR1++). Description: Cell survival assay (SRB), KB-V1 (MDR1++). The following applies: for IC50: Homo sapiens, read-out: KB-V1 (MDR1++) IC50, nM (N); for RR, relative resistance: IC50 KB-V1 / IC50 KB-3-1, Table 3.
In data set [4] the test system is KB-8-5 (MDR1+).
Another data set relates to S1. Description: Cell survival assay (SRB), S1. It is filed as cell-based. The note with it: Homo sapiens; S1 parental; Table 5; read-out: S1 IC50, nM (N).
Description: as §1, §2

A further data set has as its system S1-M1-3.2 (MXR). Nature of the data set: Cell survival assay, S1-M1-3.2 (MXR). The note with it: for IC50: Homo sapiens, S1-M1-3.2, MXR over-expression, Table 5, read-out: S1-M1-3.2 (MXR) IC50, nM (N); for RR, relative resistance: IC50 S1-M1-3.2 / IC50 S1. The class given is cell-based, human.
Description: as §1, §2
(§3) J. Cell Science,113: 2011-2021, 2000). It was unknown whether the hemiasterlin family of peptides interact with these drug pumps.

For another data set, the system named is HL60/AR (MRP1). Description: Cell survival assay, HL60/AR (MRP1). The following applies: for IC50: Homo sapiens, HL-60/AR, read-out: HL60/AR (MRP1) IC50, nM (N); for RR, relative resistance: IC50 HL60/AR / IC50 HL60.
Description: as §1, §2, §3

The next data set relates to HL60. Description: Cell survival assay (MTS), HL60. It is filed as cell-based. The note with it: Homo sapiens, HL-60; HL60 parental; Table 5; read-out: HL60 IC50, nM (N).
Where [5] appears, read: KB-3-1 cells (paclitaxel-sensitive parent), read-out: In vitro IC50 (nM) KB-3-1.
[6] abbreviates: Homo sapiens, KB-3-1 parental, Table 3, read-out: KB-3-1 IC50, nM (N).
Setting [7] is: Homo sapiens, KB-3-1 parental, Table 8, read-out: KB-3-1 IC50.

Where two headings read alike, the source gives them in different places.

Consider epothilone B, for which the IC50 in the data set on KB-3-1 (KB-3-1 parental, Table 8, read-out: KB-3-1 IC50) was 0.63 ± 0.08 nM; with KB-HTI-4.0 it was 2.37 ± 2.2 nM. Also, the “(RR) relative resistance vs. parental cells” value in the data set with KB-HTI-4.0 is “(4)”. Also, the “resistance of A549.EpoB40 cells” value with A549.EpoB40 was determined as 107 fold.

With `CCN(C(=O)[C@@H](NC(=O)[C@@H](NC)C(C)(C)c1ccccc1)C(C)C)[C@H](/C=C(\C)C(=O)O)C(C)C.O=C(O)C(F)(F)F` [Example 95, N,β,β-trimethyl-L-phenylananyl-N^1-[(1S,2E)-3-carboxy-1-isopropylbut-2-enyl]-N^1-ethyl-L-valinamide Trifluoroacetic Acid], in the data set with KB-8-5 (MDR1+) [1], the “Ratio KB85/KB” value was determined as 2.1. Also, the IC50 with KB-V1 (MDR1++) [2] was determined as 2550 nM; with KB-3-1 (setting [5]) it was 38.6 nM; in the data set on KB-8-5 (MDR1+) [4] it was 82 nM. Further, in the data set on KB-V1 (MDR1++) [3], the “Ratio KBV1/KB” value is on record as 66.0.

In the case of `CN[C@@H](C(=O)N[C@H](C(=O)N(C)[C@H](/C=C(\C)C(=O)O)C(C)C)C(C)(C)C)C(C)(C)c1ccc(OC(C)C)cc1` [Example 69, 0-isopropyl-N,β,β-trimethyl-D-tyrosyl-N^1-[(1S,2E)-3-carboxy-1-isopropylbut-2-enyl]-N^1,3-dimethyl-L-valinamide], the “Ratio KB85/KB” value in the data set on KB-8-5 (MDR1+) [1] is listed as 2.8. In addition, the IC50 in the data set with KB-V1 (MDR1++) [2] turned out to be 2340 nM; with KB-3-1 (setting [5]), 55 nM; in the data set with KB-8-5 (MDR1+) [4] it was 151 nM. In addition, in the data set on KB-V1 (MDR1++) [3], the “Ratio KBV1/KB” value was found to be 42.6.

Consider `COc1cccc2c1C(=O)c1c(O)c3c(c(O)c1C2=O)C[C@@](O)(C(=O)CO)C[C@@H]3O[C@H]1C[C@H](N)[C@H](O)[C@H](C)O1` [adriamycin], for which the IC50 turned out to be 658 ± 483 nM with KB-8-5 (MDR1+) [1]; 11500 ± 9670 nM in the data set with KB-V1 (MDR1++) [3]; 221 ± 113 nM with S1; 43.3 ± 32 nM in the data set with KB-3-1 (setting [6]); 33.9 ± 21.2 nM in the data set with KB-3-1 (setting [7]); 11500 ± 367 nM in the data set on S1-M1-3.2 (MXR). Moreover, the IC50 is 552 ± 111 nM in the data set on KB-HTI-4.0 (Homo sapiens), above 3000 nM with HL60/AR (MRP1) and 24.2 ± 6.8 nM in the data set with HL60. The “RR, relative resistance” value is 15 in the data set on KB-8-5 (MDR1+) [1], 265 in the data set on KB-V1 (MDR1++) [3], 52 with S1-M1-3.2 (MXR) and above 124 in the data set with HL60/AR (MRP1). For the same molecule, in the data set with KB-8-5 (MDR1+) [1] (KB-8-5 (KB-85) vs KB-3-1, in vitro), the “resistance of KB-8-5 cells” value was 15 fold. Also, the “(RR) relative resistance vs. parental cells” value in the data set with KB-HTI-4.0 is listed as “(16)”.

Turning to `CN[C@H](C(=O)N[C@@H](CCC(=O)O)C(=O)N(C)[C@H](/C=C(\C)C(=O)O)C(C)C)C(C)(C)c1ccccc1` [Example 139, N,β,β-trimethyl-L-phenylalanyl-N^1-[(1S,2E)-3-carboxy-1-isopropyl-2-butenyl]-N^1-methyl-L-alpha-glutamine], the “Ratio KB85/KB” value with KB-8-5 (MDR1+) [1] worked out at 1.9. The IC50 in the data set on KB-V1 (MDR1++) [2] is at least 3000 nM; in the data set with KB-3-1 (setting [5]) it was 503 nM; in the data set with KB-8-5 (MDR1+) [4], 975 nM. In the data set on KB-V1 (MDR1++) [3], the “Ratio KBV1/KB” value is reported as 6.0.

In the case of `O=C1c2c(O)ccc(O)c2C(=O)c2c(NCCNCCO)ccc(NCCNCCO)c21` [mitoxantrone], the IC50 is 19.1 nM with KB-8-5 (MDR1+) [1]; above 3000 nM in the data set on KB-V1 (MDR1++) [3]; 31 nM in the data set on S1; 10.3 ± 6.9 nM in the data set with KB-3-1 (setting [6]); 10 ± 6.5 nM in the data set on KB-3-1 (setting [7]); 16600 nM in the data set with S1-M1-3.2 (MXR). Further, the IC50 with KB-HTI-4.0 (Homo sapiens) is 430 ± 159 nM; in the data set with HL60/AR (MRP1), 190 nM; with HL60 it was 5.9 nM. The “RR, relative resistance” value with KB-8-5 (MDR1+) [1] is on record as 1.9; with KB-V1 (MDR1++) [3], above 291; with S1-M1-3.2 (MXR), 535; with HL60/AR (MRP1), 32.4. The “(RR) relative resistance vs. parental cells” value in the data set with KB-HTI-4.0 was “(43)”.

In the case of `CN[C@H](C(=O)N[C@H](C(=O)N(C)[C@H](/C=C(\C)C(=O)O)C(C)C)C(C)(C)C)C(C)(C)c1ccccc1` [Example 134, (E,4S)-4-[((2S)-3,3-dimethyl-2-{[(2S)-3-methyl-2-(methylamino)-3-phenylbutanoyl]amino}butanoyl)(methyl)amino]-2,5-dimethyl-2-hexenoic Acid], in the data set with KB-8-5 (MDR1+) [1], the “Ratio KB85/KB” value came to 1.4. Moreover, the figures for the IC50 with KB-V1 (MDR1++) [2] (human), with KB-3-1 (read-out: In vitro IC50 (nM) KB-3-1) and with KB-8-5 (MDR1+) [4] (human) were 879 nM, 28 nM and 39 nM, respectively. In addition, the “Ratio KBV1/KB” value in the data set with KB-V1 (MDR1++) [3] came out at 31.3.
